Assays:
CHO-K1 cells [1] = experiment: Permeability of cell membrane to substrates (uptake and wash-out, fluorescence); type: cell-based; settings: 100 μM, 60 minutes
Experimental: CHO-K1 Cells (ATCC-CCL61) were cultured in a 1:1 mixture of Ham's F12 nutrients and Dulbecco's modified minimal essential medium supplemented with 10% fetal bovine serum (FBS), 100 U/ml penicillin, and […] streptomycin, in an atmosphere of 95% air and 5% CO2 at 37° C.

CHO-K1 cells [2] = experiment: Toxicity of Cl-alkanes, CellTiter-Glo Luminescence Cell Viability Assay; type: cell-based
Experimental: To study the toxicity of Cl-alkanes, CHO-K1 cells were plated in 96 well plates to a density of 5,000 cells per well. […] Viability of the cells was measured with CellTiter-Glo™ Luminescence Cell Viability Assay (Promega) according to the manufacturer's protocol. Generally, 100 μl of CellTiter-Glo™ reagent was added directly to the cells and the luminescence was recorded at 10 minutes using a DYNEX MLX microtiter plate luminometer.

DhaA.H272F = DhaA.H272F (Rhodococcus rhodochrous, UniProt P0A3G2, H272F); type: binding; settings: dose dependent, HRP conjugated streptavidin

O=C(NCCOCCOCCCCCCCl)c1ccc(-c2c3ccc(=O)cc-3oc3cc(O)ccc23)c(C(=O)O)c1 [N-{2-[2-(6-Chlorohexyloxy)-ethoxy]-ethyl}-fluorescein-5-amide]
crossing of the plasma membrane of CHO-K1 cells (CHO-K1 cells [1]): did not cross the plasma membrane

O=C(CCCC[C@@H]1SC[C@@H]2NC(=O)N[C@@H]21)NCCOCCOCCCCCCCl [biotin-C10H21NO2—Cl, N-{2-[2-(6-Chlorohexyloxy)-ethoxy]ethyl}-biotin-amide]
toxicity on CHO-K1 cells (CHO-K1 cells [2]; 24 hours of treatment at 100 μM): No toxicity
concentration at which binding could be detected (DhaA.H272F): 0.2 µM

N-{2-[2-(6-Chlorohexyloxy)-ethoxy]-ethyl}-tetramethylrhodamine-5-(and -6)-amide
toxicity on CHO-K1 cells (CHO-K1 cells [2]; 4 hour treatment at 100 μM (highest concentration tested)): no toxicity

From US9416353B2, “Covalent tethering of functional groups to proteins and substrates therefor” (Promega Corporation, priority 2004, dated 2016)
